Assay results taken from patent US10328083B1, “Compositions and methods for treating stroke” (University of South Florida, priority 2012, dated 2019).
Structures can show the parent of a compound that is named as a salt.

Key:
Assay type in all cases: in vivo
[1] = system: permanent middle cerebral artery occlusion (MCAO) in rats; experiment: Mortality rate prior to euthanization after permanent MCAO; settings: for FD: jugular catheter, up to 48 h post MCAO
Procedure: (§1) Permanent middle cerebral artery occlusion (MCAO) was induced in rats. Post MCAO, conivaptan was administered to the rat via jugular catheter at varying times and dosages. The conivaptan used was VAPRISOL® which is a conivaptan hydrochloride premixed in 5% dextrose at 20 mg/100 ml in 100 ml IV bag. The conivaptan was purchased from Astellas Pharma USA, Inc. (lot#0789065) and sub-aliquoted into sterile foil-covered vials.
(§2) For rats receiving the 6-hour treatment, 0.5 ml (0.35 mg/kg) bolus conivaptan was administered six hours post MCAO, followed by administrations of 0.1 ml (0.07 mg/kg) conivaptan at nine hours post MCAO. At 20, 24, 28, and 32 hours post MCAO, 0.1 ml (0.07 mg/kg) conivaptan was administered. A saline control (1.4 ml of 0.9% saline) was then injected at 44 hours post MCAO. At 48 hours post MCAO, the rats were euthanized.
(§3) For rats receiving the 24-hour treatment, 0.5 ml (0.35 mg/kg) bolus conivaptan was administered 24 hours post MCAO, followed by administrations of 0.1 ml (0.07 mg/kg) conivaptan at 20, 24, 28 and 32 hours post MCAO. Saline controls (1.4 ml of 0.9% saline) were injected at 6, 9, and 44 hours post MCAO. At 48 hours post MCAO, the rats were euthanized.
The mortality rate prior to euthanization is provided below in Table 1: […]

[2] = system: permanent middle cerebral artery occlusion (MCAO) in rats; experiment: Results of treatment post MCAO (Table 3; CD11b staining of infarct and surrounding areas per FIGS. 2-4); settings: treatment started 6 h post MCAO; rats euthanized at 48 h post MCAO
Procedure: FIG. 1 is a table showing the conivaptan treatment regimens. The five treatment groups were normal saline (control)[NS], 5% saline infusion+5% saline maintenance [5% IM], conivaptan only [C], conivaptan+5% saline maintenance [C5% M], and conivaptan+5% saline infusion+5% saline maintenance [C5% IM]. (Euth.=euthanized).
FIG. 4 is a graph showing the average area fraction of CD11b staining at 48 hours post MCAO following the various treatments.
as §1, with “MCAO, conivaptan, hyper saline or normal saline” for “MCAO, conivaptan”, “the rats” for “the rat”, “was Vaprisol®” for “was VAPRISOL®”, “vials. Hyper saline solutions were 5% NaCl. Saline solutions were 0.9% NaCl.” for “vials.”
as §2, with “six-hour” for “6-hour”, “6” for “six”, “9” for “nine”, “euthanized. […]” for “euthanized.”

[3] = system: permanent middle cerebral artery occlusion (MCAO) in rats; experiment: Fluoro-Jade staining of neural biopsies from the site of the infarct after permanent MCAO
Procedure: as §1, §2, §3
Fluoro-Jade staining of neural biopsies obtained from the site of the infarct was also performed and the results are shown in Table 2.

## Cc1nc2c([nH]1)-c1ccccc1N(C(=O)c1ccc(NC(=O)c3ccccc3-c3ccccc3)cc1)CC2 [conivaptan, conivaptan hydrochloride]
[1]; 6-hour treatment: 0.35 mg/kg bolus 6 h post MCAO, then 0.07 mg/kg at 9, 20, 24, 28, 32 h
  FD: 2
[1]; 6-hour treatment, prior to euthanization at 48 h post MCAO
  % Survival: 78%
[1]; 6-hour treatment, value in brackets (total), prior to euthanization at 48 h post MCAO
  % Survival (total): 82%
[1]; 24-hour treatment: 0.35 mg/kg bolus 24 h post MCAO, then 0.07 mg/kg doses
  FD: 4
[1]; 24-hour treatment, prior to euthanization at 48 h post MCAO
  % Survival: 56%
[2]
  Avg (Table 3, results of treatment): 0.486
[3]; 6-hour treatment, n = 7, p = .06 compared to controls
  Fluoro-Jade staining Avg: 38.331 g
[3]; 6-hour treatment, p = .06
  decrease in Fluoro-Jade staining compared to controls: *p = .06 compared to controls 37% decrease
[3]; 24-hour treatment, n = 5, p = 0.3 compared to controls
  Fluoro-Jade staining Avg: 55.388 g
